In PMC10388363, “Novel 1,4-Dihydropyridines as Specific Binders and Activators of SIRT3 Impair Cell Viability and Clonogenicity and Downregulate Hypoxia-Induced Targets in Cancer Cells” (Journal of Medicinal Chemistry, 2023):
Each block holds one compound with its values, some of them ahead of it.

Experiments:
[1] = test system: acK68- and acK122-MnSOD in MDA-MB-231 cells; experiment: Western blot of MnSOD acK68 and acK122 marks in MDA-MB-231 cells; format: cell-based, human; settings: MDA-MB-231, negative control SIRT3 inhibitor
Experimental: (§1) K68-MnSOD acetylation promotes a transformation-permissive phenotype, leading to a chemotherapy-resistant breast cancer cell model using cisplatin and doxorubicin.[68] […] The specific SIRT3 inhibitor 3-TYP was utilized as negative control.
(§2) Breast cancer cell line MDA-MB-231, anaplastic thyroid cancer cell line CAL-62 and human keratinocytes HaCaT were purchased from ATCC and were cultured in RPMI 1640 medium (R0883 Sigma Aldrich-MERCK) (MDA-MB-231 and CAL-62) or DMEM medium (11965092, Gibco) supplemented with 10% fetal bovine serum (Sigma-Aldrich-MERCK, F9665), 2 mM glutamine (G7513; Sigma-Aldrich-MERCK), 100 units/mL penicillin and 0.1 mg/mL streptomycin (P0781; Sigma-Aldrich-MERCK). Adherent cells were detached by Trypsin–EDTA solution (TA049; Sigma-Aldrich-MERCK). Cells were maintained at 37 °C in humidified incubator with 5% CO2. Cells were treated with […] (CoCl2) (Merck; C8661) dissolved in distilled, sterile water for 24 h to induce hypoxia (200 μM). […]
(§3) The following antibodies were used in this study: ACTB (Merck; A5316), HIF1-α (Cell Signaling; 14179), HIF2/EPAS-1 (Santa Cruz Biotechnology sc-13596), HXKII (Santa Cruz Biotechnology sc-6521), CAIX (Novus Biotechnology NB100-417), SIRT3 (Cell Signaling; 2627S), MnSOD (Abcam ab13533), MnSOD K68 (Abcam ab137037), MnSOD K122 (Abcam ab214675), peroxidase-conjugated AffiniPure Goat Anti-Rabbit IgG (H + L) (Jackson ImmunoResearch; 111-035-003), and peroxidase-conjugated AffiniPure Goat Anti-Mouse IgG (H + L) (Jackson ImmunoResearch; 115-035-062).
(§4) Treated and untreated cells were collected and centrifuged at 3000 rpm for 5 min. […] Protein concentration was determined by the Bradford assay (Bio-Rad; 500-0205). […] After three more washes in PBST, the detection of the relevant protein was assessed by enhanced chemiluminescence (Lite Ablot TURBO, Euro-Clone; EMP012001). […]

[2] = test system: HIF-1α, EPAS-1, and CA-IX protein expression in CAL-62; experiment: Western blot of HIF-1α, EPAS-1 and CA-IX in CAL-62 cells under hypoxia; format: cell-based
Experimental: (§5) Based on these findings, we decided to assess the ability of the SIRT3 activators 3a–d to impair HIF-1α, EPAS-1, and CA-IX protein expression in CAL-62 (Figure 10A–F) and MDA-MB-231 (Figure 11A–F) cell lines treated with the compounds at 50 μM for 48 h and under hypoxia conditions.
(§6) Breast cancer cell line MDA-MB-231, anaplastic thyroid cancer cell line CAL-62 and human keratinocytes HaCaT were purchased from ATCC and were cultured in RPMI 1640 medium (R0883 Sigma Aldrich-MERCK) (MDA-MB-231 and CAL-62) or DMEM medium (11965092, Gibco) supplemented with 10% fetal bovine serum (Sigma-Aldrich-MERCK, F9665), 2 mM glutamine (G7513; Sigma-Aldrich-MERCK), 100 units/mL penicillin and 0.1 mg/mL streptomycin (P0781; Sigma-Aldrich-MERCK). Adherent cells were detached by Trypsin–EDTA solution (TA049; Sigma-Aldrich-MERCK). Cells were maintained at 37 °C in humidified incubator with 5% CO2. Cells were treated with […] (CoCl2) (Merck; C8661) dissolved in distilled, sterile water for 24 h to induce hypoxia (200 μM). Hypoxic and normoxic cells were also treated with 10/50 μM of the indicated compounds (dissolved in DMSO) for 48 h, maintaining the CoCl2 in the culture medium for hypoxic conditions. SIRT3 inhibitor 3-TYP was dissolved in DMSO and added to a final concentration of 1 μM for 24 and/or 48 h.
as §3
(§7) Treated and untreated cells were collected and centrifuged at 3000 rpm for 5 min. After removing the supernatant, cells were lysed in 70 μL of lysis buffer containing: 50 mM Tris-Cl (Merck; 93352), 250 mM sodium chloride (NaCl, Merck; S7653), 5 mM ethylenediaminetetraacetic acid (EDTA; Merck; E6758), 0.1% Triton X-100 and 0.1 mM dithiothreitol (Merck; D9163) plus 1 mM phenylmethylsulfonyl fluoride (PMSF, Merck; 93482), protease inhibitor cocktail (PI; Merck; P8340), 1 mM sodium orthovanadate (NA3VO4, Merck; S6508), and 10 mM sodium fluoride (NaF, Merck; 201154) (lysis buffer). After 30 min on ice, samples were centrifuged at 13,000 rpm for 10 min at 4 °C, and the supernatants collected. Protein concentration was determined by the Bradford assay (Bio-Rad; 500-0205). The equivalent of 15 or 50 μg of protein was boiled for 5 min, electrophoresed onto denaturing SDS-PAGE gel, and transferred onto a […] nitrocellulose membrane (Bio-Rad; 162-0115). After blocking with 5% milk, membranes were incubated with the appropriate primary antibody overnight. The next day, after three washes with 0.1% Tween 20 (Merck; P9416) in PBS (PBST) for 30 min at rt, membranes were incubated with the appropriate secondary antibody for 1 h at rt. After three more washes in PBST, the detection of the relevant protein was assessed by enhanced chemiluminescence (Lite Ablot TURBO, Euro-Clone; EMP012001). Densitometric analysis of the bands, relative to ACTB, was performed using ImageJ Software v1.51 (NIH, Bethesda, MD, USA).

[3] = test system: acK68- and acK122-MnSOD in CAL-62 cells; experiment: Western blot of MnSOD acK68 and acK122 marks in CAL-62 cells; format: cell-based; settings: CAL-62, negative control SIRT3 inhibitor
Experimental: as §1, §2, §4

[4] = test system: HIF-1α, EPAS-1, and CA-IX protein expression in MDA-MB-231; experiment: Western blot of HIF-1α, EPAS-1 and CA-IX in MDA-MB-231 cells under hypoxia; format: cell-based, human; settings: MDA-MB-231, hypoxia, negative control SIRT3 inhibitor
Experimental: as §5, §6, §3, §7

[5] = molecular target: T1, human SIRT3 (Homo sapiens, UniProt Q9NTG7); design: method as in PMID 36228194; settings: 100 μM; cited from earlier work
T1 construct: pET151D/Topo (Sirt3-114-380 and Sirt5-34-302); His tag (N, cleaved yes); made in house; host or cells: Escherichia coli
T1 sequence (Q9NTG7 114-380): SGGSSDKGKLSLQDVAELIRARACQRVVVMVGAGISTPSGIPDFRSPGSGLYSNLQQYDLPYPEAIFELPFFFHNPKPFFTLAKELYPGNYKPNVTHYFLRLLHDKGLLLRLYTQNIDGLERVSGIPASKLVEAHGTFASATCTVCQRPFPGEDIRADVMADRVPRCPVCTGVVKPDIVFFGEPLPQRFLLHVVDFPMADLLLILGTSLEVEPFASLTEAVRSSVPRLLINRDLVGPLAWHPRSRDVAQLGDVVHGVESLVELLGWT

[6] = molecular target: T1, human SIRT3; experiment: Surface plasmon resonance binding assay, immobilized SIRT3; settings: SPR, Scatchard analysis, analytes 5-80 μM
Experimental: Next, surface plasmon resonance (SPR) experiments were conducted with selected SIRT3 activators 2e and 3a–d to ascertain their biophysical interaction with the human SIRT3 protein. Their parental compounds 2 and 3, together with honokiol, were used as positive controls. The experiments were carried out twice at different concentrations (5, 10, 20, 40, and 80 μM), by injecting the compounds at increasing doses (Figure 5). The resonance units (RU) increase with respect to baseline indicates the formation of the SIRT3/ligand complex, the plateau region represents the steady-state phase of the interaction (RUeq, RU at equilibrium) and the decrease in RU after 180 s represents dissociation of analytes from the immobilized SIRT3 protein after injection of the buffer.
SPR experiments were carried out using a SensiQ Pioneer system (SensiQ, Oklahoma City, OK, USA), essentially as in Genovese et al. 2020[84] and in Battista et al. 2021,[85] with some modifications, as follows.
The sensor chip (COOH5) was chemically activated by a 35 μL injection of a 1:1 mixture of […] (200 mM) and N-hydroxysuccinimide (50 mM) at a flow rate of 5 μL/min. Sirtuin3 (ligand) was immobilized on activated sensor chips via amine coupling. Immobilization was carried out in 20 mM sodium acetate at pH 4.0; unreacted groups were blocked by injecting 1 M ethanolamine hydrochloride (35 μL). Sirtuin3 immobilization level obtained was 1500–4000 RU.
The analytes, dissolved in 100% DMSO at 10 mM concentration, were diluted in buffer 20 mM Hepes, 150 mM NaCl, 0.005% surfactant P20 buffer (HBSP) to a concentration of 200 μM (2% final DMSO concentration), further diluted in HBSP + 2% DMSO (HBSP2%D) and injected on the sensor chip at a constant flow rate (nominal flow rate = 30 μL/min) at the following concentrations: 5, 10, 20, 40, and 80 μM.
The RU increase relative to baseline indicates complex formation (taking place at known analytes concentrations at each moment in the gradient); the plateau region represents the steady-state phase of the interaction (RUeq); and the decrease in RU after 180 s represents dissociation of analytes from the immobilized Sirtiun3 after injection of HBSP2%D. Regeneration procedures are based on two long (2000 and 500 s) injections of buffer, separated by a brief (5 s) injection of 10 mM NaOH.
Control experiments were performed in sensor chips treated as described above in the absence of an immobilized ligand. Kinetic evaluation of the sensorgrams was obtained using the SensiQ Qdat program and full fitting with 1, 2, and 3 sites; Scatchard analysis was used to determine apparent KD values.

[7] = test system: GDH activity in MDA-MB-231 cells; experiment: GDH activity assay in lysates of treated MDA-MB-231 cells; format: cell-based, human; settings: 50 μM, 4 h
Experimental: Selected compounds 3a–d were tested in triple-negative breast cancer MDA-MB-231 cells to evaluate their effects on SIRT3 physiological substrates. First, the effect on the activity of GDH (an established SIRT3 substrate activated through deacetylation[60]−[62]) was investigated by a coupled enzyme assay. […] These effects of SIRT3 activators clearly phenocopied those observed in the SIRT3-overexpressing MDA-MB-231 cells (SIRT3^+) (Figure 6).
GDH activity in cells treated or not with the SIRT3 activators 3a–d and the reference compounds 2 and 3 was measured using a GDH activity assay kit (MAK099, Merck) following the manufacturer’s instructions. Briefly, 10^6 cells were lysed in 40 μL of GDH assay buffer and kept for 10 min in ice. Afterward, lysates were centrifuged to collect supernatants. Ten microliters of supernatant were added to 40 μL of GDH buffer and 100 μL of a mix containing GDH assay buffer, developer, and glutamate. The whole mix was transferred into a 96-well plate and incubated at 37 °C for 3 min. Finally, absorbance was read at 450 nm using a GloMax multi detection system (Promega, Milan, Italy). The absorbance of the assay buffer was subtracted from each experimental sample.

Structure (SMILES): c1cncc(-c2cnn[nH]2)c1 [3-TYP, reference compound]
acetylation levels of both K68 and K122 residues of MnSOD [1]: markedly increased
HIF-1α, EPAS-1, and CA-IX protein expression ([2]; CAL-62, hypoxia, negative control SIRT3 inhibitor): negligible effects
acetylation levels of both K68 and K122 residues of MnSOD [3]: markedly increased
HIF-1α, EPAS-1, and CA-IX protein expression [4]: did not show any activity

Structure (SMILES): CCOC(=O)C1=CN(C(=O)c2cc(OC)c(OC)c(OC)c2)C=C(C(=O)OCC)C1c1ccccc1 [Compound 3]
SIRT3 activation [5]: over 400%
Kd [6]: 40 to 47 µM
GDH activation [7]: around 175%

Structure (SMILES): CCOC(=O)C1=CN(C(=O)c2ccc(OC)cc2)C=C(C(=O)OCC)C1c1ccccc1 [Compound 3b, Diethyl 1-(4-methoxybenzoyl)-4-phenyl-1,4-dihydropyridine-3,5-dicarboxylate]
CA-IX protein expression ([2]; CAL-62, 50 μM, 48 h, hypoxia): significantly downregulated
effect on GDH activity in cell lysates [7]: negligible effect

Kd [6]: 40 to 47 µM
Structure (SMILES): C=CCc1ccc(O)c(-c2ccc(O)c(CC=C)c2)c1 [honokiol]
